Data from ChEMBL document CHEMBL1152339, “Use of the in vivo hollow fiber assay in natural products anticancer drug discovery” (J Nat Prod, 2009).

How the values were obtained:
Type in all cases: functional
SW626 [1] = assay: Growth inhibition of human SW626 cells xenografted in ip dosed NCr nu/nu mouse administered once daily from day 3 to 6 after implantation measured on day 7 by MTT-based hollow-fiber test
KB [2] = assay: Growth inhibition of human KB cells xenografted in NCr nu/nu mouse at 3.75 to 30 mg/kg, ip once daily administered from day 3 to 6 after implantation measured on day 7 by MTT-based hollow-fiber test; settings: route intraperitoneal
KB [3] = assay: Growth inhibition of human KB cells xenografted in NCr nu/nu mouse at 3.75 to 30 mg/kg, sc once daily administered from day 3 to 6 after implantation measured on day 7 by MTT-based hollow-fiber test; settings: route subcutaneous
SW626 [4] = assay: Growth inhibition of human SW626 cells xenografted in NCr nu/nu mouse at 3.75 to 30 mg/kg, ip once daily administered from day 3 to 6 after implantation measured on day 7 by MTT-based hollow-fiber test; settings: dose mg/kg 3-6; route intraperitoneal
SW626 [5] = assay: Growth inhibition of human SW626 cells xenografted in NCr nu/nu mouse at 3.75 to 30 mg/kg, sc once daily administered from day 3 to 6 after implantation measured on day 7 by MTT-based hollow-fiber test; settings: dose mg/kg 3-6; route subcutaneous
KB [6] = assay: Growth inhibition of human KB cells xenografted in NCr nu/nu mouse at 6.25 to 25 mg/kg, ip once daily administered from day 3 to 6 after implantation measured on day 7 by MTT-based hollow-fiber test; settings: route intraperitoneal
KB [7] = assay: Growth inhibition of human KB cells xenografted in NCr nu/nu mouse at 6.25 to 25 mg/kg, sc once daily administered from day 3 to 6 after implantation measured on day 7 by MTT-based hollow-fiber test; settings: route subcutaneous
LNCaP [8] = assay: Growth inhibition of human LNCAP cells xenografted in NCr nu/nu mouse at 6.25 to 25 mg/kg, ip once daily administered from day 3 to 6 after implantation measured on day 7 by MTT-based hollow-fiber test; settings: route intraperitoneal
LNCaP [9] = assay: Growth inhibition of human LNCAP cells xenografted in NCr nu/nu mouse at 6.25 to 25 mg/kg, sc once daily administered from day 3 to 6 after implantation measured on day 7 by MTT-based hollow-fiber test; settings: route subcutaneous
Col2 [10] = assay: Growth inhibition of human Col2 cells xenografted in NCr nu/nu mouse at 6.25 to 25 mg/kg, ip once daily administered from day 3 to 6 after implantation measured on day 7 by MTT-based hollow-fiber test; settings: route intraperitoneal
Col2 [11] = assay: Growth inhibition of human Col2 cells xenografted in NCr nu/nu mouse at 6.25 to 25 mg/kg, sc once daily administered from day 3 to 6 after implantation measured on day 7 by MTT-based hollow-fiber test; settings: route subcutaneous
LNCaP [12] = assay: Growth inhibition of human LNCAP cells xenografted in ip dosed NCr nu/nu mouse administered once daily from day 3 to 6 after implantation measured on day 7 by MTT-based hollow-fiber test
Col2 [13] = assay: Growth inhibition of human Col2 cells xenografted in ip dosed NCr nu/nu mouse administered once daily from day 3 to 6 after implantation measured on day 7 by MTT-based hollow-fiber test

SMILES | ED50 (SW626 [1]) | growth inhibition (GI) (KB [2]) | growth inhibition (GI) (KB [3]) | growth inhibition (GI) (SW626 [4]) | growth inhibition (GI) (SW626 [5]) | growth inhibition (GI) (KB [6]) | growth inhibition (GI) (KB [7]) | growth inhibition (GI) (LNCaP [8]) | growth inhibition (GI) (LNCaP [9]) | growth inhibition (GI) (Col2 [10]) | growth inhibition (GI) (Col2 [11]) | ED50 (LNCaP [12]) | ED50 (Col2 [13])
CC(=O)O[C@H]1C(=O)[C@@]2(C)[C@H]([C@H](OC(=O)c3ccccc3)[C@]3(O)C[C@H](OC(=O)[C@H](O)[C@@H](NC(=O)c4ccccc4)c4ccccc4)C(C)=C1C3(C)C)[C@]1(OC(C)=O)CO[C@@H]1C[C@@H]2O [PACLITAXEL] | 0.012 nM | 70% | 20% | 98% | 0% |  |  |  |  |  |  |  | 
CC(=O)O[C@H]1O[C@H]([C@@H]2c3cccc(O)c3C(=O)c3c(O)cc(C)cc32)[C@H](O)[C@@H](OC(=O)C=C(C)C)[C@H]1O [ALVARADOIN G] |  |  |  |  |  | 79% | 13% | 52% | 24% | 84% | 0% | 290 nM | 1300 nM
